Data reported in US12344572B2, “Cationic lipids and transfection methods” (Factor Bioscience Inc., priority 2019, dated 2025).

What was measured:
Rat = assay: mRNA delivery in rat by intradermal injection, anti-GFP histology; type: in vivo; conditions: GFP mRNA complexed at 2.5 μg/μg, necropsy 48 hours
[1] = tested on: confluent layer of primary human epidermal keratinocytes; assay: Transfection of a confluent layer of primary human epidermal keratinocytes with GFP-encoding RNA; type: cell-based; conditions: images 24 hours following transfection; both lipid-to-RNA mass ratios tested
[2] = Zeta potential of DLinDHS/RNA complexes versus buffer pH; type: physicochemical
[3] = Particle size of DLinDHS/RNA complexes by dynamic light scattering; type: physicochemical; conditions: DLinDHS/RNA complexes formed in aqueous mRNA solution with varied sodium chloride concentration
RNase A = assay: Protection of mRNA from RNase A degradation, GFP readout in keratinocytes; type: cell-based; conditions: DLinDHS/mRNA complexes treated with RNase A after complexation, 2.5 μg/μg, 20,000 keratinocytes in serum-free medium
human subject = assay: In vivo mRNA delivery to a human subject by intradermal injection, confocal fluorescence microscopy of biopsy; conditions: human male, ventral forearm, 400 ng RNA in 20 μL, 2.5 μg/μg, biopsy after 48 hours
[4] = tested on: primary human epidermal keratinocytes; assay: Gene editing of keratinocytes with RNA encoding gene-editing proteins, T7E1 endonuclease digestion; type: cell-based; conditions: RNA encoding gene-editing proteins complexed with lipid
[5] = tested on: human epidermal keratinocytes; assay: GFP mRNA delivery to keratinocytes in serum-free medium or 50% FBS; type: cell-based; conditions: 20,000 keratinocytes, 0% FBS or 50% FBS, images 16 hours following transfection; DLinDHS at 2.5 μg/μg lipid-to-RNA; LNPs 300 ng final mRNA
[6] = tested on: primary human adult dermal fibroblasts; assay: Transfection of primary human adult dermal fibroblasts with GFP-encoding RNA; type: cell-based; conditions: images 16 hours following transfection; both lipid-to-RNA mass ratios tested
[7] = tested on: primary human dermal fibroblasts; assay: Time-lapse fluorescence imaging of labeled RNA / labeled lipid uptake in dermal fibroblasts; type: cell-based
[8] = tested on: primary human epidermal keratinocytes; assay: Transfection of primary human epidermal keratinocytes with GFP-encoding RNA complexed with lipid, in 100% FBS; type: cell-based
[9] = tested on: human peripheral blood mononuclear cells (hPBMCs); assay: Transfection of human peripheral blood mononuclear cells with GFP-encoding RNA complexed with lipid; type: cell-based; conditions: images 16 hours following transfection; both lipid-to-RNA mass ratios tested

CCCCC/C=C\C/C=C\CCCCCCCCN(CCCCN(CCCCCCCC/C=C\C/C=C\CCCCC)CC(O)CN)CC(O)CN (centres unmarked) [DHDLinS, N^1,N^4-dilinoleyl-N^1,N^4-di-(2-hydroxy-3-aminopropyl)-diaminobutane]
reporter protein (GFP) expression in tissue (Rat): localized expression in the dermal layer | transfection of confluent keratinocytes (GFP fluorescence) [1]: effectively transfected | dependence of zeta potential on pH ([2]; DLinDHS/RNA lipoplexes diluted into 20 mM citrate pH 3.0-6.0 or 20 mM phosphate pH 7.4): pH-dependent | zeta potential ([2]; DLinDHS/RNA lipoplexes, 2.5 μg/μg, 20 mM phosphate, pH 7.4): −22.1 mV | particle size of lipoplex (Z-average, DLS) [3]: ionic-strength dependent | protection of complexed RNA from RNase A degradation (GFP expression) (RNase A): protected from degradation | reporter protein (RFP) expression in skin (human subject): RFP-positive cells that have a morphology consistent with that of fibroblasts | gene-editing efficiency [4]: gene edited at high efficiency | mRNA delivery in serum (GFP fluorescence) [5]: efficiently delivers mRNA in 50% serum | transfection of adult dermal fibroblasts (GFP fluorescence) [6]: effectively transfected | time after transfection at which protein expression begins ([7]; 100 ng GFP mRNA, 2.5 μg/μg, 20,000 fibroblasts in 10% FBS): ≤ 2.5 h | time to detection of mRNA in cytoplasm after contact with lipoplexes ([7]; 100 ng GFP mRNA, 20% Cy5-labeled, 2.5 μg/μg, 20,000 fibroblasts in 10% FBS): ≤ 50 min | contact of labeled lipid with cells ([7]; BODIPY-labeled DLinDHS (10:1), 200 ng GFP mRNA, fibroblasts): contacts cells within minutes after transfection | transfection of keratinocytes (GFP fluorescence) ([8]; 400 ng per well GFP RNA, complexation in DMEM, transfection in 100% FBS, images 8 hours after transfection, lipid without acetone purification): transfected with high efficiency | lipid-to-RNA mass ratios at which minimal increase in fluorescence signal was observed ([8]; DHDLinS purified by extraction with acetone, keratinocytes, images 16 hours following transfection): greater than 2 μg/μg | time after transfection at which a fluorescent signal was detected ([8]; experiment of FIG. 1, keratinocytes, 100% FBS): one | transfection of hPBMCs (GFP fluorescence) [9]: effectively transfected hPBMCs at both lipid-to-RNA mass ratios tested
